Source: patent publication US5496854A, “Metallocenes as anti-tumor drugs” (Technion Research & Development Foundation Ltd., priority 1992, dated 1996)
Where two headings read alike, the source gives them in different places.

Columns and labels:
H-322 Lung Carcinoma = experiment: Cytotoxicity (growth inhibition), H-322
Excerpt: (§1) The value of the ratio Ti/Pt represents the relative activity of TPE as compared with that of cis-platinum.
(§2) The excipient can serve as an agent for promoting absorption of the medicament by the body or as formulation auxiliary, sweetener, flavouring agent, colourant or preservative. […] The novel titanocene derivatives, according to the present invention, can be prepared from common chemical reagents using standard equipment. It should be realized, that the Examples for their preparations presented hereinafter are only for illustration and many other routes may be conceived for their syntheses.

MCF-7 Breast Cancer = experiment: Cytotoxicity (growth inhibition), MCF-7
Excerpt: as §1, §2

Molt-4 T-cell Leukemia = experiment: Cytotoxicity (growth inhibition), Molt-4; conditions: for cytotoxicity (log.): molt-4 cells
Excerpt: as §1, §2

[1] = test system: Capan 1 Pancreas Carcinoma; experiment: Cytotoxicity (growth inhibition), Capan 1
Excerpt: as §1, §2

HT-29 Colon Carcinoma = experiment: Cytotoxicity (growth inhibition), HT-29
Excerpt: as §1, §2

[2] = test system: Ovcar-3 Ovarian Carcinoma; experiment: Cytotoxicity (growth inhibition), Ovcar-3
Excerpt: as §1, §2

HL-60 B-cell Leukemia = experiment: Cytotoxicity (growth inhibition), HL-60
Excerpt: as §1, §2

P-388 Mouse Leukemia = experiment: Cytotoxicity (growth inhibition), P-388
Excerpt: as §1, §2

NHDF Normal Human Skin = experiment: Cytotoxicity (growth inhibition), NHDF
Excerpt: as §1, §2

UCLA-P3 Lung Carcinoma = experiment: Cytotoxicity (growth inhibition), UCLA-P3
Excerpt: as §1, §2

[3] = test system: HMEC Normal Human Mammary; experiment: Cytotoxicity (growth inhibition), HMEC
Excerpt: as §1, §2

[4] = test system: NHEK Normal Keratino Epithelial; experiment: Cytotoxicity (growth inhibition), NHEK
Excerpt: as §1, §2

SK-Mel-28 Melanoma = experiment: Cytotoxicity (growth inhibition), SK-Mel-28
Excerpt: as §1, §2

[5] = test system: CHO Chinese Hamstead Ovary; experiment: Cytotoxicity (growth inhibition), CHO
Excerpt: as §1, §2

tumor = conditions: prior art; cited from earlier work

Compound: C[N+](C)(C)CCOC(=O)c1ccc([O-])cc1.C[N+](C)(C)CCOC(=O)c1ccc([O-])cc1.[Ti+4].c1cc[cH-]c1.c1cc[cH-]c1 [TCE, Bis[4-(2-trimethylammono)ethoxycarbonylphenolato]bis(n^5-cyclopentadienyl)titanium(IV)]
- cytotoxicity (log.) (H-322 Lung Carcinoma; h-322 cells): -4.00 log. (M)
- cytotoxicity (log.) (MCF-7 Breast Cancer; mcf-7 cells): -4.30 log. (M)
- cytotoxicity (log.) (Molt-4 T-cell Leukemia): -4.00 log. (M)
- cytotoxicity (log.) ([1]; capan 1 cells): -4.00 log. (M)
- cytotoxicity (log.) (HT-29 Colon Carcinoma; ht-29 cells): -4.00 log. (M)
- cytotoxicity (log.) ([2]; ovcar-3 cells): -4.00 log. (M)

Compound: CCOC(=O)c1ccc([O-])cc1.CCOC(=O)c1ccc([O-])cc1.[Ti+4].c1cc[cH-]c1.c1cc[cH-]c1 [TEE-1, Bis(4-ethoxycarbonylphenolato)bis(n^5-cyclopentadienyl)titanium(IV)]
- cytotoxicity (log.) (H-322 Lung Carcinoma; h-322 cells): -5.80 log. (M)
- cytotoxicity (log.) (MCF-7 Breast Cancer; mcf-7 cells): -5.80 log. (M)
- cytotoxicity (log.) (Molt-4 T-cell Leukemia): -7.00 log. (M)
- cytotoxicity (log.) (HL-60 B-cell Leukemia; hl-60 cells): -5.51 log. (M)
- cytotoxicity (log.) (P-388 Mouse Leukemia; p-388 cells): -4.89 log. (M)
- cytotoxicity (log.) (NHDF Normal Human Skin; human, nhdf cells): -4.89 log. (M)
- cytotoxicity (log.) (UCLA-P3 Lung Carcinoma; ucla-p3 cells): -5.20 log. (M)
- cytotoxicity (log.) ([1]; capan 1 cells): -5.51 log. (M)
- cytotoxicity (log.) ([3]; human, hmec cells): -6.11 log. (M)
- cytotoxicity (log.) ([4]; human, nhek cells): -5.80 log. (M)
- cytotoxicity (log.) (HT-29 Colon Carcinoma; ht-29 cells): -5.20 log. (M)
- cytotoxicity (log.) ([2]; ovcar-3 cells): -5.20 log. (M)
- cytotoxicity (log.) (SK-Mel-28 Melanoma; sk-mel-28 cells): -5.51 log. (M)
- cytotoxicity (log.) ([5]; cho cells): -4.60 log. (M)

Compound: COCCOCCOC(=O)c1ccc([O-])cc1.COCCOCCOC(=O)c1ccc([O-])cc1.[Ti+4].c1cc[cH-]c1.c1cc[cH-]c1 [TEG, Bis[4-(2-(2-methoxyethoxy)ethoxy]carbonylphenolato]bis(n^5-cyclopentadienyl)titanium(IV)]
- cytotoxicity (log.) (Molt-4 T-cell Leukemia): -4.00 log. (M)
- cytotoxicity (log.) ([2]; ovcar-3 cells): -4.00 log. (M)

Compound: COCCOC(=O)c1ccc([O-])cc1.COCCOC(=O)c1ccc([O-])cc1.[Ti+4].c1cc[cH-]c1.c1cc[cH-]c1 [TMEM, Bis[4-(2-methoxy)ethoxycarbonylphenolato]bis(n^5-cyclopentadienyl)titanium(IV)]
- cytotoxicity (log.) (H-322 Lung Carcinoma; h-322 cells): -4.89 log. (M)
- cytotoxicity (log.) (MCF-7 Breast Cancer; mcf-7 cells): -4.89 log. (M)
- cytotoxicity (log.) (Molt-4 T-cell Leukemia): -7.00 log. (M)
- cytotoxicity (log.) (HL-60 B-cell Leukemia; hl-60 cells): -4.60 log. (M)
- cytotoxicity (log.) (NHDF Normal Human Skin; human, nhdf cells): -4.30 log. (M)
- cytotoxicity (log.) ([1]; capan 1 cells): -4.89 log. (M)
- cytotoxicity (log.) ([3]; human, hmec cells): -4.60 log. (M)
- cytotoxicity (log.) (HT-29 Colon Carcinoma; ht-29 cells): -4.60 log. (M)
- cytotoxicity (log.) ([2]; ovcar-3 cells): -4.60 log. (M)
- cytotoxicity (log.) (SK-Mel-28 Melanoma; sk-mel-28 cells): -4.60 log. (M)
- cytotoxicity (log.) ([5]; cho cells): -4.30 log. (M)

Compound: COC(=O)c1ccc([O-])cc1.COC(=O)c1ccc([O-])cc1.[Ti+4].c1cc[cH-]c1.c1cc[cH-]c1 [TPE, Bis(4-methoxycarbonylphenolato)bis(n^5-cyclopentadienyl)titanium(IV)]
- ratio Ti/Pt (H-322 Lung Carcinoma; H-322, relative activity of TPE as compared with cis-platinum): 100
- IC50 (H-322 Lung Carcinoma; h-322 cells): 0.63 µM
- cytotoxicity (log.) (H-322 Lung Carcinoma; h-322 cells): -6.20 log. (M)
- ratio Ti/Pt (MCF-7 Breast Cancer; MCF-7, relative activity of TPE as compared with cis-platinum): 100
- IC50 (MCF-7 Breast Cancer; mcf-7 cells): 2 µM
- cytotoxicity (log.) (MCF-7 Breast Cancer; mcf-7 cells): -5.70 log. (M)
- ratio Ti/Pt (Molt-4 T-cell Leukemia; Molt-4, relative activity of TPE as compared with cis-platinum): 10
- cytotoxicity (log.) (Molt-4 T-cell Leukemia): -6.00 log. (M)
- ratio Ti/Pt (HL-60 B-cell Leukemia; HL-60, relative activity of TPE as compared with cis-platinum): 2
- IC50 (HL-60 B-cell Leukemia; hl-60 cells): 3.1 µM
- cytotoxicity (log.) (HL-60 B-cell Leukemia; hl-60 cells): -5.70 log. (M)
- IC50 (P-388 Mouse Leukemia; p-388 cells): 3.9 µM
- cytotoxicity (log.) (P-388 Mouse Leukemia; p-388 cells): -5.41 log. (M)
- ratio Ti/Pt (NHDF Normal Human Skin; NHDF, relative activity of TPE as compared with cis-platinum): 20
- CC50 (NHDF Normal Human Skin; human, nhdf cells): 1.6 µM
- cytotoxicity (log.) (NHDF Normal Human Skin; human, nhdf cells): -5.41 log. (M)
- ratio Ti/Pt (UCLA-P3 Lung Carcinoma; UCLA-P3, relative activity of TPE as compared with cis-platinum): 20
- IC50 (UCLA-P3 Lung Carcinoma; ucla-p3 cells): 3.1 µM
- cytotoxicity (log.) (UCLA-P3 Lung Carcinoma; ucla-p3 cells): -5.51 log. (M)
- ratio Ti/Pt ([1]; Capan 1, relative activity of TPE as compared with cis-platinum): 10
- IC50 ([1]; capan 1 cells): 0.39 µM
- cytotoxicity (log.) ([1]; capan 1 cells): -6.41 log. (M)
- ratio Ti/Pt ([3]; HMEC, relative activity of TPE as compared with cis-platinum): 20
- CC50 ([3]; human, hmec cells): 3.1 µM
- cytotoxicity (log.) ([3]; human, hmec cells): -5.70 log. (M)
- ratio Ti/Pt ([4]; NHEK, relative activity of TPE as compared with cis-platinum): 200
- CC50 ([4]; human, nhek cells): 3.1 µM
- cytotoxicity (log.) ([4]; human, nhek cells): -5.51 log. (M)
- ratio Ti/Pt (HT-29 Colon Carcinoma; HT-29, relative activity of TPE as compared with cis-platinum): 200
- IC50 (HT-29 Colon Carcinoma; ht-29 cells): 3.9 µM
- cytotoxicity (log.) (HT-29 Colon Carcinoma; ht-29 cells): -5.41 log. (M)
- ratio Ti/Pt ([2]; Ovcar-3, relative activity of TPE as compared with cis-platinum): 10
- IC50 ([2]; ovcar-3 cells): 6.3 µM
- cytotoxicity (log.) ([2]; ovcar-3 cells): -5.20 log. (M)
- ratio Ti/Pt (SK-Mel-28 Melanoma; SK-Mel-28, relative activity of TPE as compared with cis-platinum): 10
- IC50 (SK-Mel-28 Melanoma; sk-mel-28 cells): 1.6 µM
- cytotoxicity (log.) (SK-Mel-28 Melanoma; sk-mel-28 cells): -5.41 log. (M)
- ratio Ti/Pt ([5]; CHO, relative activity of TPE as compared with cis-platinum): 2
- IC50 ([5]; cho cells): 13 µM
- cytotoxicity (log.) ([5]; cho cells): -4.80 log. (M)

Compound: titanocene dichloride [TDC, reference compound]
- IC50 (H-322 Lung Carcinoma; read-out: IC50 (cytotoxic data), H-322): 1000 µM
- IC50 (MCF-7 Breast Cancer; read-out: IC50 (cytotoxic data), MCF-7): 1000 µM
- IC50 (Molt-4 T-cell Leukemia; read-out: IC50 (cytotoxic data), Molt-4): 1000 µM
- IC50 (HL-60 B-cell Leukemia; read-out: IC50 (cytotoxic data), HL-60): 1000 µM
- anti-tumor activity (tumor): very reactive anti-tumor reagent
- IC50 (P-388 Mouse Leukemia; read-out: IC50 (cytotoxic data), P-388): 500 µM
- CC50 (NHDF Normal Human Skin; read-out: IC50 (cytotoxic data), NHDF): 1000 µM
- IC50 (UCLA-P3 Lung Carcinoma; read-out: IC50 (cytotoxic data), UCLA-P3): 1000 µM
- IC50 ([1]; read-out: IC50 (cytotoxic data), Capan 1): 500 µM
- CC50 ([3]; read-out: IC50 (cytotoxic data), HMEC): 130 µM
- CC50 ([4]; read-out: IC50 (cytotoxic data), NHEK): 1000 µM
- IC50 (HT-29 Colon Carcinoma; read-out: IC50 (cytotoxic data), HT-29): 500 µM
- IC50 ([2]; read-out: IC50 (cytotoxic data), Ovcar-3): 1000 µM
- IC50 (SK-Mel-28 Melanoma; read-out: IC50 (cytotoxic data), SK-Mel-28): 1000 µM
- IC50 ([5]; read-out: IC50 (cytotoxic data), CHO): 1000 µM
